Results taken from US9902752B2, “5-fluorouracil derivatives” (B. Braun Melsungen AG, priority 2012, dated 2018).
Like-named read-outs stand apart in the source and are kept apart here. {19c} = modification given as compound (19c) in the publication; {25} = modification given as compound (25) in the publication; {Cy3} = Cy-3 fluorescent dye

Tests used:
[1] = Lipophilicity as chromatographic mobility, RP-18 HPLC retention time; assay type: physicochemical; conditions: MeCN/0.1 M Et3NH+OAc− (35:65, v/v, pH 7.0)
Experimental: RP-18 HPLC was carried out on a 250×4 mm RP-18 column (Merck, Germany) on a Merck-Hitachi HPLC apparatus with one pump (Model 655A-12) connected with a proportioning valve, a variable wavelength monitor (Model 655 A), a controller (Model L-5000), and an integrator (Model D-2000). Solvent: MeCN/0.1 M Et3NH^+OAc^− (35:65, v/v, pH 7.0).
The lipophilicity of various 5-fluorouridine derivatives has been studied since the lipophilicity has inter alia an influence on the incorporation into oligo(2′-deoxynucleotides). The lipophilicity of the novel hydrophobic nucleoside derivatives has been studied in different by two ways: (i) log P values of the compounds were calculated (Table 4) and compared with those of the unmodified nucleoside 1a, (ii) the chromatographic mobilities of the compounds were measured in terms of retention times (tR in min) by RP-18 HPLC.

[2] = cited from earlier work
[3] = pKBH+ value of the nucleoside; assay type: physicochemical
[4] = Bilayer insertion of lipophilic oligonucleotides (fluorescence scans); assay type: physicochemical; conditions: for incorporation into the artificial bilayer: brightness of the layers, 25 min incubation; for retention in the bilayer after perfusions: perfusions of 60 s each
Experimental: The incorporation of the oligonucleotides into artificial bilayers was performed at a lipid mixture of 1-palmitoyl-2-oleyl-sn-glycero-3-phosphoethanolamine (POPE) and 1-palmitoyl-2-oleyl-sn-glycero-3-phosphocholine (POPC) (8:2, w/w, 100 mg/ml of n-decane). For the preparation of the horizontal bilayers, planar slides (Ionovation GmbH, D-Osnabrück) were used. These slides contain chambers for cis- and trans compartments as well as electrode access (see FIG. 1). The main body of the slides contains of PTFE foil (thickness, 25 μm) with an aperture of ˜100 μm diameter. This foil separates the chamber into the cis- and trans compartments which are only connected by the aperture. After filling of the chamber with buffer (250 mM KCl, 10 mM MOPS/TRIS, pH 7), the cis- and trans compartments were linked with Ag/AgCl electrodes—embedded in agarose/3 M KCl). Then, a soln. of the POPC/POPE lipid mixture (0.2 μl) is applied onto the aperture of the PTFE foil using a Hamilton syringe (Hamilton, CH-Bonaduz). A small Faraday cage shields the bilayer and the electrodes from HF-electrical noise. Next, a bilayer is made-up automatically using a perfusion system (Bilayer Explorer V01, Ionovation GmbH, D-Osnabrück). The formation of a stable bilayer was monitored both, optically using a laser scanning microscope (Insight Cell 3D, Evotec Technologies GmbH, D-Hamburg) as well as electrically by capacity measurements. When a stable bilayer had been obtained (capacity, […]), the corresponding oligonucleotide soln. (50 nM, 4 μl) was injected into the cis compartment of the chip. During an incubation time of 25 min the intactness of the bilayer was electro-physiologically controlled using a headstage EPC 10 USB with a patch clamp amplifier (software: Patchmaster, HEKA Elektronik Dr. Schulze GmbH, D-Lambrecht). The optical pictures of fluorescence fluctuations were obtained with a confocal laser scanning microscope (Insight Cell 3D, Evotec Technologies GmbH, D-Hamburg), equipped with a He—Ne laser (543 nm), a 40× water-immersion objective (UApo 340, 40×, NA=1.15, Olympus, 3-Tokyo), and an Avalanche photodiode detector (SPCM-AQR-13-FC, Perkin-Elmer Optoelectronics, Fremont, USA). Fluorescence irradiation was obtained with a laser power of 200±5 μW. 2D and 3D scans were performed by scanning the confocal spot in XY direction with a rotating beam scanner and movement of the objective in Z direction. The movement in both directions was piezo controlled which allows a nano-meter precise positioning. For the 2D pictures (Z-scans, FIGS. 2 and 3) the confocal plane was moved in 100 nm steps. […]

[5] = Free diffusion times of oligonucleotides (without bilayer); assay type: physicochemical; conditions: diluted 50 nM oligomer solution
Experimental: From the fluorescence signals of single molecules which pass the excitation volume, the diffusion constants can be calculated. In order to determine the diffusion times of the fluorescent oligonucleotides within and near the bilayer, they were measured at five different positions above, below and within the layer. At each point five measurements for 30 s, each, were taken. In summary, each measuring protocol was as follows: (i) a reference scan of the stable (empty) bilayer; (ii) addition of the sample with 25 min of incubation, followed by a scan series; (iii) additional scan series, each after a 1., 2., and 3. perfusion (60 s, each).
The diffusion times (μs) of 41 and 42 were measured, both without and in the presence of an artificial bilayer. For the determination of the free diffusion times the corresponding oligomer solution (50 nM) was diluted so that in the confocal measuring volume (˜10^−15 l) only one fluorescent molecule was present. Each measurement was performed ten-fold for 30 s, each. In order to determine the diffusion times of the lipophilized oligonucleotides (41, 42) in the presence of a bilayer five measuring positions above, beneath and in the bilayer were chosen. This was necessary because the bilayer is floating within certain limits, which makes it difficult to target it most exactly (FIG. 5, measuring points 1-5). […]

[6] = Diffusion times of oligonucleotides in the presence of a lipid bilayer; assay type: physicochemical
Experimental: The incorporation of the oligonucleotides into artificial bilayers was performed at a lipid mixture of 1-palmitoyl-2-oleyl-sn-glycero-3-phosphoethanolamine (POPE) and 1-palmitoyl-2-oleyl-sn-glycero-3-phosphocholine (POPC) (8:2, w/w, 100 mg/ml of n-decane). For the preparation of the horizontal bilayers, planar slides (Ionovation GmbH, D-Osnabrück) were used. These slides contain chambers for cis- and trans compartments as well as electrode access (see FIG. 1). The main body of the slides contains of PTFE foil (thickness, 25 μm) with an aperture of ˜100 μm diameter. This foil separates the chamber into the cis- and trans compartments which are only connected by the aperture. After filling of the chamber with buffer (250 mM KCl, 10 mM MOPS/TRIS, pH 7), the cis- and trans compartments were linked with Ag/AgCl electrodes—embedded in agarose/3 M KCl). Then, a soln. of the POPC/POPE lipid mixture (0.2 μl) is applied onto the aperture of the PTFE foil using a Hamilton syringe (Hamilton, CH-Bonaduz). […] The formation of a stable bilayer was monitored both, optically using a laser scanning microscope (Insight Cell 3D, Evotec Technologies GmbH, D-Hamburg) as well as electrically by capacity measurements. […] The optical pictures of fluorescence fluctuations were obtained with a confocal laser scanning microscope (Insight Cell 3D, Evotec Technologies GmbH, D-Hamburg), equipped with a He—Ne laser (543 nm), a 40× water-immersion objective (UApo 340, 40×, NA=1.15, Olympus, 3-Tokyo), and an Avalanche photodiode detector (SPCM-AQR-13-FC, Perkin-Elmer Optoelectronics, Fremont, USA). Fluorescence irradiation was obtained with a laser power of 200±5 μW. […]
From the fluorescence signals of single molecules which pass the excitation volume, the diffusion constants can be calculated. In order to determine the diffusion times of the fluorescent oligonucleotides within and near the bilayer, they were measured at five different positions above, below and within the layer. […]
The diffusion times (μs) of 41 and 42 were measured, both without and in the presence of an artificial bilayer. […]

[7] = 1N aq. HCl/MeCN, 1:1 (v/v); cited from earlier work
[8] = system: HT-29 (human colon carcinoma) cell line; experiment: Viability/survival of HT-29 cells (PrestoBlue); assay type: cell-based; conditions: HT-29, 10-80 μM, 24, 48 or 72 h; vs comparative compounds, 5-fluorouridine and 5-fluorouracil
Experimental: In vitro experiments were performed using HT-29 (human colon carcinoma) cell line (DSMZ, GmbH, Braunschweig, Germany). The cells were cultured in 90% RPMI 1640 supplemented with 10% fetal bovine serum (FBS), 100 U/ml penicillin, 0.1 mg/ml streptomycin. Cells were maintained at 37° C. in a humidified atmosphere of 5% CO2 and 95% air; the medium was changed every 48 h.
1×10^4 human HT-29 in 100 μl medium/well were seeded in 96-well plates (BD Falcon™, Becton Dickinson GmbH, Heidelberg, Germany). After 24 h, the medium was changed and different concentrations of 5-fluorouracil, 5-fluorouridin and 5-fluorouridin derivative molecules (10, 20, 40 or 80 μM) were tested. After 24, 48 or 72 h incubation, viability/survival was measured using PrestoBlue™ reagent (Invitrogen-Life Technologies GmbH, Darmstadt, Germany). PrestoBlue™ reagent is more sensible than alamarBlue®, which is a redox indicator of enzyme activity widely used in whole organism screening for viability/cytotoxicity (1-6). PrestoBlue™ was directly added to the cells into the culture medium at a final concentration of 10%. Thereafter the plates were returned to the incubator. 30 min, 1 h, 2 h, 3 h and 4 h after addition of PrestoBlue™ the optical density (OD) was measured at 570 nm and 600 nm (as reference) with a SUNRISE ELISA-reader (Tecan, Salzburg, Austria). […]

[9] = measuring point 3, after 1. perfusion

CC(C)=CCC/C(C)=C/CC/C(C)=C/Cn1c(=O)c(F)cn([C@@H]2O[C@H](CO)[C@@H](O)[C@H]2O)c1=O [Compound 23, 1-((2R,3R,4S,5R)-3,4-dihydroxy-5-(hydroxymethyl)tetrahydrofuran-2-yl)-5-fluoro-3-((2E,6E)-3,7,11-trimethyldodeca-2,6,10-trien-1-yl)pyrimidine-2,4(1H,3H)-dione]
RP-18 HPLC tR [1]: 27 min

O=c1[nH]cc(F)c(=O)[nH]1 [fluorouracil, 5-fluorouracil]
half life ([2]; with uracil (UFT, DPD inhibition)): 10 to 14 h | half life ([2]; without uracil): 0.167 to 0.5 h

CCCC1(CCC)OC2C(O1)[C@@H](CO)O[C@H]2n1cc(F)c(=O)n(C/C=C(\C)CC/C=C(\C)CCC=C(C)C)c1=O (stereo partly drawn) [Compound 25, 5-Fluoro-1-((3aR,4R,6R,6aR)-6-(hydroxymethyl)-2,2-dipropyitetrahydrofuro-[3,4-d][1,3]dioxol-4-yl)-3-((2E,6E)-3,7,11-trimethyldodeca-2,6,10-trien-1-yl)pyrimidine-2,4(1H,3H)-dione]
RP-18 HPLC tR [1]: 87 min

CCCCCCCCCC1(CCCCCCCCC)O[C@@H]2[C@H](O1)[C@@H](CO)O[C@H]2n1cc(F)c(=O)[nH]c1=O [Compound 19c, 5-Fluoro-1-((3aR,4R,6R,6aR)-6-(hydroxymethyl)-2,2-dinonyltetrahydrofuro[3,4-d][1,3]dioxol-4-yl)pyrimidine-2,4(1H,3H)-dione]
RP-18 HPLC tR [1]: >600 min

O=c1[nH]c(=O)n([C@@H]2O[C@H](CO)[C@@H](O)[C@H]2O)cc1F [Compound 1a, 5-Fluorouridine, reference compound]
pKBH+ [3]: 8.0±0.1 | RP-18 HPLC tR [1]: 1 min

5′-d[(19c)-(Cy-3)-TAG GTC AAT ACT]. (DNA TAGGTCAATACT; DNA, 5' {19c}-{Cy3}, backbone not given here) [Oligomer 42]
incorporation into the artificial bilayer [4]: better inserted | retention in the bilayer after perfusions [4]: do not lead to a significant removal | Free diffusion time [5]: 390.39 ± 249.05 μs | Diffusion time in the presence of a bilayer [6, 9]: 75952 ± 8201, after 1 perfusion μs | Diffusion time in the presence of a bilayer ([6]; measuring point 3, after 3. perfusion): 19891 ± 3266, after 3. perfusion μs

CCCC1(CCC)OC2[C@@H](O1)[C@@H](CO)O[C@H]2n1cc(F)c(=O)[nH]c1=O (some centres unmarked) [Compound 19b, 5-Fluoro-2,3′-O-(1-propylbutylidene)uridine]
acidic stability at the ketal group, T [7]: 130 min

5′-d[(25)-(Cy-3)-TAG GTC AAT ACT] (DNA TAGGTCAATACT; DNA, 5' {25}-{Cy3}, backbone not given here) [Oligomer 41]
incorporation into the artificial bilayer [4]: successfully incorporated | retention in the bilayer after perfusions [4]: brightness of the layer decreases after two perfusions | Free diffusion time [5]: 279.67 ± 141.08 μs | Diffusion time in the presence of a bilayer [6, 9]: 33547 ± 16751, after 1. perfusion μs

CC1(C)O[C@@H]2[C@H](O1)[C@@H](CO)O[C@H]2n1cc(F)c(=O)[nH]c1=O [Compound 19a, 5-Fluoro-1-((3aR,4R,6R,6aR)-6-(hydroxymethyl)-2,2-dimethyltetrahydrofuro[3,4-d][1,3]dioxol-4-yl)pyrimidine-2,4(1H,3H)-dione]
melting point: 196 to 197 °C

CC(C)=CCC/C(C)=C/CC/C(C)=C/Cn1c(=O)c(F)cn([C@@H]2O[C@H](CO)C3OC4(CCCCCCCCCCC4)OC32)c1=O (some centres unmarked) [Compound 31a, 2′,3′-O-Cyclododecane-1,1-diyl-5-fluoro-3-[(2E,6E)-3,7,11-trimethyldodeca-2,6,10-trien-1-yl]uridine]
activity against carcinoma cells [8]: significant higher activity

CC(C)=CCC/C(C)=C/CC/C(C)=C/Cn1c(=O)c(F)cn([C@@H]2O[C@H](CO)[C@H]3OC(C)(C)O[C@H]32)c1=O [Compound 24, 5-Fluoro-1-((3aR,4R,6R,6aR)-6-(hydroxymethyl)-2,2-dimethyltetrahydrofuro-[3,4-d][1,3]dioxol-4-yl)-3-((2E,6E)-3,7,11-trimethyldodeca-2,6,10-trien-1-yl)pyrimidine-2,4(1H,3H)-dione]
RP-18 HPLC tR [1]: 24 min
